Reference: US8497283B2, “Autotaxin inhibitors” (Merck Patent GmbH, priority 2009, dated 2013)

target: T1, recombinant autotaxin (Homo sapiens, UniProt Q13822); assay: Autotaxin assay (Amplex Red fluorescence, LPC substrate); format: biochemical; conditions: ten serial 1:3 dilutions starting at 30 μM, duplicates; 75 μM LPC; values given as upper bounds
T1 construct: made in house; host or cells: Hi5 insect cells (baculovirus)
Procedure: Autotaxin activity is measured indirectly by means of Amplex Red Reagent. In this course, Amplex Red is measured as fluorogenic indicator for generated H2O2. Autotaxin converts substrate lysophosphatidylcholine (LPC) to phosphocholine and lysophosphatidylic acid (LPA). After the conversion phosphocholine is reacted with alkaline phosphatase to obtain inorganic phosphate and choline. During the next step choline is oxidized with choline oxidase to yield betaine, whereby H2O2 is generated. H2O2 reacts with Amplex Red Reagent in the presence of peroxidase (Horseradish peroxidase) in an 1:1 stochiometry and yields highly fluorescent resorufin. The generated fluorescence is measured in a reaction-dependent kinetic mode in order to enable subtraction of fluorescence signals of possible other fluorescent compounds that are not part of the reaction from total measured fluorescence.
1.5 μl of a standard solution or of the compounds of the invention are dissolved in 20 mM Hepes pH 7.2 with maximally 7.7% DMSO in individual concentrations. The resulting solution is pre-incubated together with 10 μl (16 ng) of highly purified recombinant autotaxin in a black 384-hole microtiter plate for 30 min at 22° C.
Thereafter, the reaction is started through the addition of 5 μl L-a-lysophosphatidyl-choline (LPC), whereby the final concentration of LPC is 75 μM. The mixture is incubated for 90 min. at 37° C. After the incubation Amplex Red Reagent, peroxidase (Horseradish peroxidase) and choline oxidase are added. The fluorescence is immediately measured at a wavelength of 612 nm with an excitation wavelength of 485 nm in a “Tecan Ultra multimode” fluorescence reader. The activity of autotaxin is indirectly calculated via the amount of detected generated H2O2.
For IC50 analysis, ten serial 1:3 dilutions starting at 30 μM for each compound were run in duplicates.
IC50 values were calculated on normalized data. For normalization, control wells were added to each assay plate and the signal of uninhibited control wells was set to 100%, whereas the signal inhibited by 500 μM C14 LPA, (Avanti Polar Lipids, Cat#857120P) was set to 0%. Curves were fitted and IC50 values calculated by the following model using proprietory analysis software: Y=Bottom+(100−Bottom)/(1+10^((Log IC50−X)*HillSlope))
Where X is the logarithm of concentration. Y is the response;
Y starts at Bottom and goes to Top with a sigmoid shape.
Protein: Recombinant autotaxin (baculoviral Hi5 expression)
Substrate: L-a-lysophosphatidyl choline (chicken egg); Avanti Polar Lipids #830071P
Standard: C14 LPA, Avanti Polar Lipids, Cat#857120P
Detection Reagent Amplex Red Reagent; Invitrogen #A12222; dissolved in 1.923 ml of DMSO peroxidase Type VI-A (horseradish), Sigma #P6782; dissolved in 7.45 ml of test buffer, Choline Oxidase; Sigma #C5896; dissolved in 2.47 ml test buffer
Detection Reagent Mix: 1:100 dilution of Amplex Red Regent in test buffer
Test buffer: 200 mM Tris-HCl, Merck, Cat #1.08219, pH 7.9; 0.1% BSA, lipid free, Roche Cat#775835

NC(=O)c1c(NC(=O)Nc2ccc(Cl)cc2)sc2c1CCN(C(=O)c1ccc3[nH]nnc3c1)C2 [Compound 1, 6-(1H-Benzotriazole-5-carbonyl)-2-[3-(4-chloro-phenyl)-ureido]-4,5,6,7-tetrahydro-thieno[2,3-c]pyridine-3-carboxylic acid amide] and CC(C)c1ccc(NC(=O)Nc2sc3c(c2C(N)=O)CCN(C(=O)c2ccc4[nH]nnc4c2)C3)cc1 [Compound 4, 6-(1H-Benzotriazole-5-carbonyl)-2-[3-(4-isopropyl-phenyl)-ureido]-4,5,6,7-tetrahydro-thieno[2,3-c]pyridine-3-carboxylic acid amide] cannot be ordered by IC50: under 1000 nM for the first, under 1000 nM for the second.

NC(=O)c1c(NC(=O)Nc2ccc(Cl)cc2)sc2c1CCN(C(=O)c1ccc3[nH]c(=O)oc3c1)C2 [Compound 2, 2-[3-(4-Chloro-phenyl)-ureido]-6-(2-oxo-2,3-dihydro-benzooxazole-6-carbonyl)-4,5,6,7-tetrahydro-thieno[2,3-c]pyridine-3-carboxylic acid amide] and CC(C)c1ccc(NC(=O)Nc2sc3c(c2C(N)=O)CCN(C(=O)c2ccc4[nH]c(=O)oc4c2)C3)cc1 [Compound 7, 2-[3-(4-Isopropyl-phenyl)-ureido]-6-(2-oxo-2,3-dihydro-benzooxazole-6-carbonyl)-4,5,6,7-tetrahydro-thieno[2,3-c]pyridine-3-carboxylic acid amide] cannot be ordered by IC50: under 1000 nM for the first, under 1000 nM for the second.

NC(=O)c1c(NC(=O)Nc2ccc(C(F)(F)F)cc2)sc2c1CCN(C(=O)c1ccc3[nH]nnc3c1)C2 [Compound 3, 6-(1H-Benzotriazole-5-carbonyl)-2-[3-(4-trifluoromethyl-phenyl)-ureido]-4,5,6,7-tetrahydro-thieno[2,3-c]pyridine-3-carboxylic acid amide] and NC(=O)c1c(NC(=O)CCc2ccc(Cl)cc2)sc2c1CCN(C(=O)c1ccc3[nH]nnc3c1)C2 [Compound 5, 6-(1H-Benzotriazole-5-carbonyl)-2-[3-(4-chloro-phenyl)-propionylamino]-4,5,6,7-tetrahydro-thieno[2,3-c]pyridine-3-carboxylic acid amide] cannot be ordered by IC50: under 1000 nM for the first, under 1000 nM for the second.

NC(=O)c1c(NC(=O)CCc2ccc(Cl)cc2)sc2c1CCN(C(=O)c1ccc3[nH]c(=O)oc3c1)C2 [Compound 6, 2-[3-(4-Chloro-phenyl)-propionylamino]-6-(2-oxo-2,3-dihydro-benzooxazole-6-carbonyl)-4,5,6,7-tetrahydro-thieno[2,3-c]pyridine-3-carboxylic acid amide] and NC(=O)c1c(NC(=O)Cc2ccc(Cl)cc2F)sc2c1CCN(C(=O)c1ccc3[nH]c(=O)oc3c1)C2 [Compound 10, 2-[2-(4-Chloro-2-fluoro-phenyl)-acetylamino]-6-(2-oxo-2,3-dihydro-benzooxazole-6-carbonyl)-4,5,6,7-tetrahydro-thieno[2,3-c]pyridine-3-carboxylic acid amide] cannot be ordered by IC50: under 1000 nM for the first, under 1000 nM for the second.

NC(=O)c1c(NC(=O)Nc2cc(Cl)cc(Cl)c2)sc2c1CCN(C(=O)c1ccc3[nH]c(=O)oc3c1)C2 [Compound 8, 2-[3-(3,5-Dichloro-phenyl)-ureido]-6-(2-oxo-2,3-dihydro-benzooxazole-6-carbonyl)-4,5,6,7-tetrahydro-thieno[2,3-c]pyridine-3-carboxylic acid amide] and NC(=O)c1c(NC(=O)Cc2ccc(Cl)cc2F)sc2c1CCN(C(=O)c1ccc3[nH]nnc3c1)C2 [Compound 9, 6-(1H-Benzotriazole-5-carbonyl)-2-[2-(4-chloro-2-fluoro-phenyl)-acetylamino]-4,5,6,7-tetrahydro-thieno[2,3-c]pyridine-3-carboxylic acid amide] cannot be ordered by IC50: under 10000 nM for the first, under 1000 nM for the second.

With NC(=O)c1c(NC(=O)Cc2cccc(Cl)c2)sc2c1CCN(C(=O)c1ccc3[nH]nnc3c1)C2 [Compound 11, 6-(1H-Benzotriazole-5-carbonyl)-2-[2-(3-chloro-phenyl)-acetylamino]-4,5,6,7-tetrahydro-thieno[2,3-c]pyridine-3-carboxylic acid amide] the IC50 was under 1000 nM.
